# T1: Solute carrier family 22 member 1 (Rattus norvegicus, UniProt Q63089)
# T1 sequence (Q63089 whole entry): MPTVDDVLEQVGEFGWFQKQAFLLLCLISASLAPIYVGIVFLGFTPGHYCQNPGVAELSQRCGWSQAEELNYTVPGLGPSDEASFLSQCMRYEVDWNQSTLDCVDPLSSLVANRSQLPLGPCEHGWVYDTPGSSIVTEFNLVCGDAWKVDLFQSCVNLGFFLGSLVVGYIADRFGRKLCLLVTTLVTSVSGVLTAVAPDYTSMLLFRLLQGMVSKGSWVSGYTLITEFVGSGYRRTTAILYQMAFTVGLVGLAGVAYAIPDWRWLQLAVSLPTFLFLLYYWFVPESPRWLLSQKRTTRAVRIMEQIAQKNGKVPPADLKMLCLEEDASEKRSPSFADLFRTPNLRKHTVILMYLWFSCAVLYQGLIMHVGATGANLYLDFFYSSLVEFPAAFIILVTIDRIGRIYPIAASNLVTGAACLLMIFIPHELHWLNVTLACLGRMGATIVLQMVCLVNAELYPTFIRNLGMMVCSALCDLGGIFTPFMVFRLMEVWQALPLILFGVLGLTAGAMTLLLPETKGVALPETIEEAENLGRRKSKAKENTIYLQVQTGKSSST
# T2: Solute carrier family 22 member 2 (Rattus norvegicus, UniProt Q9R0W2)
# T2 sequence (Q9R0W2 whole entry): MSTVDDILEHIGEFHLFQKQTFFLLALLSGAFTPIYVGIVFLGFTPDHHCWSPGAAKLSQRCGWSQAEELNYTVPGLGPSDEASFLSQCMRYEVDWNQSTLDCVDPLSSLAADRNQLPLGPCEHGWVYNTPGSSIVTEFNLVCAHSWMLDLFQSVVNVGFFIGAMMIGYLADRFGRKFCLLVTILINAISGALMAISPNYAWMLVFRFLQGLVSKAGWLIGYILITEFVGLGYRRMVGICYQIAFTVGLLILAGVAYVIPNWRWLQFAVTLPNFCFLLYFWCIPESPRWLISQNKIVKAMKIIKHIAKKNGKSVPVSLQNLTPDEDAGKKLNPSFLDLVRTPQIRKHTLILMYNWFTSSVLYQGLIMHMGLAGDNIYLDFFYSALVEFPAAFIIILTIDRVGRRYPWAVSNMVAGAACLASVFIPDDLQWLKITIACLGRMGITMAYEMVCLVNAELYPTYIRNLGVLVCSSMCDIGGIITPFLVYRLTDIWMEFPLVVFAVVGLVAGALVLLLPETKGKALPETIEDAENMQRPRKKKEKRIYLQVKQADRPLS
# B1: Solute carrier family 22 member 2 (Rattus norvegicus) (protein)
# chain: T2 sequence (Q9R0W2 whole entry)
# Legend:
# [1] = biological target: T1, Solute carrier family 22 member 1; experiment: TP_TRANSPORTER: inhibition pramipexole uptake in rOCT1-injected oocytes; assay type: functional, cell-based, Oocyte
# [2] = biological target: T2, Solute carrier family 22 member 2; experiment: TP_TRANSPORTER: inhibition pramipexole uptake in rOCT2-injected oocytes; assay type: functional, cell-based, Oocyte
# [3] = biological target: T2, Solute carrier family 22 member 2; experiment: TP_TRANSPORTER: uptake in Xenopus laevis oocytes; details: Xenopus laevis oocytes expressing the transporter
# [4] = substrate: CCCN[C@H]1CCc2nc(N)sc2C1; experiment: cells, lysate or membranes named
Molecule,IC50 [1] [µM],IC50 [2] [µM],Km [3] [µM],Km [4] [µM]
NC12CC3CC(CC(C3)C1)C2 [AMANTADINE],76.3,271,,
C[C@]12C[C@H](O)[C@H]3[C@@H](CCC4=CC(=O)CC[C@@]43C)[C@@H]1CC[C@@H]2C(=O)CO [CORTICOSTERONE],164,10.7,,
CCCN[C@H]1CCc2nc(N)sc2C1 [PRAMIPEXOLE],,,17,
CCN(CC)CCNC(=O)c1ccc(N)cc1 [PROCAINAMIDE],,167,,
B1,,,,17
